Some test systems named below: HOP-62 NSCLC; MALME-3M melanoma; HL-60(TB) leukemia; KM12 colon; CCRF-CEM leukemia; SK-MEL-5 melanoma; SF-268 CNS; CAKI-1 renal; NCI-H522 lung; HOP-92 NSCLC; U251 CNS; NCI-H23 lung; UACC-257 melanoma; A549 NSCLC; HCC-2998 colon; M14 melanoma; OVCAR-3 ovarian; PC-3 prostate; TK-10 renal.
Holding throughout (assay): DTP human tumour cell line panel, 48 h

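Cultured in 96-well plates, cells were exposed to test compound for 48 hours across five concentrations. TGI is the concentration that stops growth completely.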 A value given as a limit tells only on which side of the number the result lay.

In PubChem BioAssay (NCI) one finds TGI data, which are given here for six compounds.

A word on the TGI: it is the concentration giving total growth inhibition. A high value points to lower sensitivity of the cells. Regarding `CC1C/C(=C\c2ccc(OC(=O)C(C)(C)C)cc2)C(=O)/C(=C/c2ccc(OC(=O)C(C)(C)C)cc2)C1` (centres undefined), the TGI with HOP-62 NSCLC is more than 100 µM; in the assay on MALME-3M melanoma, more than 100 µM; with HL-60(TB) leukemia it was 62.3 µM; with KM12 colon it was more than 100 µM; in the assay on CCRF-CEM leukemia, 6.25 µM; in the assay on SK-MEL-5 melanoma, more than 100 µM. Besides, the TGI in the assay on SF-268 CNS was more than 100 µM; in the assay on CAKI-1 renal it was more than 100 µM; with NCI-H522 lung, 15.6 µM; with HOP-92 NSCLC it was more than 100 µM; with U251 CNS, more than 100 µM; in the assay on NCI-H23 lung it was more than 100 µM. Further, the TGI in the assay on UACC-257 melanoma, with A549 NSCLC, in the assay on HCC-2998 colon, with M14 melanoma, with OVCAR-3 ovarian and with PC-3 prostate was more than 100 µM each time. The TGI in the assay with TK-10 renal was more than 100 µM.

As for `COc1c(OC(C)C)c(OC(C)C)c2oc(=O)n3c2c1C(c1ccccc1-n1c(C)ccc1C)C=C3` (centres undefined), the TGI in the assay on HOP-62 NSCLC is more than 100 µM; with MALME-3M melanoma, 50 µM; with HL-60(TB) leukemia, more than 100 µM; with KM12 colon, more than 100 µM; with CCRF-CEM leukemia, more than 100 µM; in the assay with SK-MEL-5 melanoma it was more than 100 µM. Besides, the TGI with SF-268 CNS, with CAKI-1 renal, in the assay with NCI-H522 lung, in the assay on HOP-92 NSCLC, in the assay on U251 CNS and in the assay with NCI-H23 lung was more than 100 µM each time. In addition, the TGI in the assay on UACC-257 melanoma, in the assay on A549 NSCLC, in the assay on HCC-2998 colon, in the assay with M14 melanoma, with OVCAR-3 ovarian and with PC-3 prostate was more than 100 µM in each case. In the assay with TK-10 renal, this compound yielded a TGI of more than 100 µM.

For `O=C(N/N=C/c1c(-c2ccccc2)no[n+]1[O-])N1CCOCC1`, the concentration for total growth inhibition (TGI) in the assay on HOP-62 NSCLC, in the assay on MALME-3M melanoma, in the assay with HL-60(TB) leukemia, in the assay on KM12 colon, in the assay with CCRF-CEM leukemia and in the assay with SK-MEL-5 melanoma was more than 100 µM each time. The total growth inhibition concentration (TGI) in the assay with SF-268 CNS, in the assay with CAKI-1 renal, with NCI-H522 lung, in the assay with HOP-92 NSCLC, with U251 CNS and in the assay on NCI-H23 lung was more than 100 µM each time. Moreover, the TGI in the assay with UACC-257 melanoma, in the assay with A549 NSCLC, in the assay with HCC-2998 colon, in the assay on M14 melanoma, in the assay with OVCAR-3 ovarian and in the assay on PC-3 prostate was more than 100 µM in each case. Besides, the TGI in the assay with TK-10 renal was more than 100 µM.

Take `O=C1c2ccccc2CN1c1ccc(OCCN2CCCCC2)cc1`: the TGI in the assay on HOP-62 NSCLC, in the assay with MALME-3M melanoma, in the assay with HL-60(TB) leukemia, in the assay on KM12 colon, in the assay on CCRF-CEM leukemia and in the assay on SK-MEL-5 melanoma was more than 10 µM each time. Besides, the TGI with SF-268 CNS, in the assay on CAKI-1 renal, with NCI-H522 lung, in the assay on HOP-92 NSCLC, with U251 CNS and in the assay on NCI-H23 lung was more than 10 µM each time. The TGI with UACC-257 melanoma, in the assay on A549 NSCLC, in the assay on HCC-2998 colon, in the assay on M14 melanoma, in the assay with OVCAR-3 ovarian and in the assay on PC-3 prostate was more than 10 µM throughout. The compound further had a TGI in the assay with TK-10 renal of more than 10 µM.

With `Nc1nc(N)c2cc(-c3ccccc3)cnc2n1`, the TGI worked out at 40.9 µM in the assay with HOP-62 NSCLC; 21.7 µM in the assay with MALME-3M melanoma; 28.4 µM in the assay on HL-60(TB) leukemia; 30.1 µM with KM12 colon; 98.3 µM in the assay on CCRF-CEM leukemia; 27.3 µM with SK-MEL-5 melanoma. The TGI in the assay on SF-268 CNS is 8.78 µM; in the assay with CAKI-1 renal, 29.5 µM; in the assay on NCI-H522 lung it was 44.9 µM; in the assay on HOP-92 NSCLC, 30.1 µM; in the assay on U251 CNS, 42 µM; in the assay with NCI-H23 lung, 25.9 µM. The TGI in the assay on UACC-257 melanoma was 30.6 µM; in the assay on A549 NSCLC, 28 µM; with HCC-2998 colon it was more than 100 µM; in the assay on M14 melanoma, 57.7 µM; with OVCAR-3 ovarian, 35.8 µM; with PC-3 prostate, 20.6 µM. Further, in the assay with TK-10 renal, the TGI came out at 29.9 µM.

`CC1CN=C(Nc2ccccc2)S1` (centres undefined): the TGI with HOP-62 NSCLC, with MALME-3M melanoma, in the assay with HL-60(TB) leukemia, with KM12 colon, in the assay with CCRF-CEM leukemia and in the assay on SK-MEL-5 melanoma was more than 100 µM in each case. Besides, the TGI in the assay on SF-268 CNS, in the assay with CAKI-1 renal, in the assay on NCI-H522 lung, with HOP-92 NSCLC, in the assay on U251 CNS and with NCI-H23 lung was more than 100 µM each time. The TGI in the assay on UACC-257 melanoma, with A549 NSCLC, in the assay with HCC-2998 colon, with M14 melanoma, with OVCAR-3 ovarian and in the assay on PC-3 prostate was more than 100 µM each time. This compound also showed a concentration for total growth inhibition (TGI) with TK-10 renal of more than 100 µM.
